Laboratory results taken from patent US12171782B2 (priority 2020, dated 2024).

How the values were obtained:
SARS-CoV PLP = SARS-CoV PLP (Severe acute respiratory syndrome coronavirus, UniProt P0C6X7); settings: cited from earlier work
SARS-CoV N protein = SARS-CoV N protein (Severe acute respiratory syndrome coronavirus, UniProt P59595); settings: cited from earlier work
[1] = system: SARS-CoV-2 replicating virus in Vero cells; settings: virus replication; cited from earlier work
[2] = target: 3CLpro from the first SARS-CoV (Severe acute respiratory syndrome coronavirus, UniProt P0C6X7); settings: cited from earlier work
SARS-CoV-2 strain = settings: plaque reduction neutralization test; read-out: PRNT50; cited from earlier work
[3] = system: peripheral blood mononuclear cells (PBMC); experiment: MTT cytotoxicity assay in PBMCs; settings: different concentrations, 24 h (FIG. 17)
PLP of SARS-CoV-2 = PLP of SARS-CoV-2 (Severe acute respiratory syndrome coronavirus 2, UniProt P0DTD1); settings: cited from earlier work
[4] = system: SARS-CoV-2 pseudotyped lentiviral vectors; settings: blocked entry of pseudotyped lentiviral vectors; cited from earlier work
3CLPro/Mpro of SARS-CoV = 3CLPro/Mpro of SARS-CoV (Severe acute respiratory syndrome coronavirus, UniProt P0C6X7); settings: cited from earlier work
common cold = settings: after 7 days of treatment, 23 mg; placebo 46%; cited from earlier work

Sequence of SARS-CoV N protein (P59595 whole entry, looked up): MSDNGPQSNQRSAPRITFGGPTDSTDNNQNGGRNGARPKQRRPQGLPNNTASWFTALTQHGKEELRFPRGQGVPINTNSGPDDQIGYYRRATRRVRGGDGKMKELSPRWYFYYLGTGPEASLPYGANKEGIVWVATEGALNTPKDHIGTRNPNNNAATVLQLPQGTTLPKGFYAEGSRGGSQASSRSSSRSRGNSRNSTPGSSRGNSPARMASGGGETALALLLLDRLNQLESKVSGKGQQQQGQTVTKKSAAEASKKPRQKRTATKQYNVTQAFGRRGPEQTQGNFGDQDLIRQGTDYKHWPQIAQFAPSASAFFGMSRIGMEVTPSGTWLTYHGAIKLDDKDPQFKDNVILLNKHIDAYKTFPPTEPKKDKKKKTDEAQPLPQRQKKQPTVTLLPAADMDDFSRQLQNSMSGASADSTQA

In the case of `[Ni]` [Ni], the “effects on the activity of PLP” value (SARS-CoV PLP) is listed as “no effects”.

For (−)-gallocatechin gallate, the IC50 (SARS-CoV N protein) is given as 0.05 µg/mL.

For `[Mn]` [Mn], the “effects on the activity of PLP” value (SARS-CoV PLP) is given as “no effects”.

For Epigallocatechin-3-gallate [EGCG], the IC50 [1] is listed as 1.73 µg/mL, the IC50 [2] is listed as 73000 nM and the “inhibition of the recombinant 3CLpro/Mpro” value [2] is listed as “over 85%”. For the same compound, the EC50 (SARS-CoV-2 strain) was 200 nM, the cell viability [3] was “a decrease in viability” and the “binding affinity to PLP core structure” value (PLP of SARS-CoV-2) was “highest binding affinity”. The IC50 [4] was 2.47 µg/mL.

For `[Ca+2]` [Ca], the “effects on the activity of PLP” value (SARS-CoV PLP) is given as “no effects”.

In the case of `[Co+2]` [Co], the “effects on the activity of PLP” value (SARS-CoV PLP) is given as “no effects”.

For `[Zn+2]` [Zn^2+], the Ki (3CLPro/Mpro of SARS-CoV) is given as 1100 nM and the IC50 (SARS-CoV PLP) is given as 1300 nM.

For `[Mg]` [Mg], the “effects on the activity of PLP” value (SARS-CoV PLP) is listed as “no effects”.

For Zinc gluconate, the subjects asymptomatic (common cold) is listed as 86%.

In the case of N-ethyl-N-phenyl-dithio-carbamate-Zinc, the IC50 (SARS-CoV PLP) is listed as 3300 nM.
